According to ChEMBL document CHEMBL1177739, “Fast-forwarding hit to lead: aurora and epidermal growth factor receptor kinase inhibitor lead identification” (J Med Chem, 2010):

What was measured:
Aurora kinase A = molecular target: T1, Aurora kinase A (Homo sapiens, UniProt O14965)
T1 sequence (O14965 whole entry): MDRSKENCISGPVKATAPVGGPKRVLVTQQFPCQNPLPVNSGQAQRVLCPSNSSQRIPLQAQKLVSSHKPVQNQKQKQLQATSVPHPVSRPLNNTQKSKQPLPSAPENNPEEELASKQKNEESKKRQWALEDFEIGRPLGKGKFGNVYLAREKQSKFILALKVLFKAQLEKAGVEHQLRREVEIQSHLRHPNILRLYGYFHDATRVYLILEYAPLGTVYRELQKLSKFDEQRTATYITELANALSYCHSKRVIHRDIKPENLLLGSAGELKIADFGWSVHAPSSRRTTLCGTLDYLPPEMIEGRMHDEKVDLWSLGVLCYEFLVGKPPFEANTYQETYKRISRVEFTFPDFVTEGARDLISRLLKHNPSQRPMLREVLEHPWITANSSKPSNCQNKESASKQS

[1] = molecular target: T2, Epidermal growth factor receptor (Homo sapiens, UniProt P00533); settings: 20 uM
Description: Inhibition of GST-tagged EGFR expressed in Escherichia coli at 20 uM

cells = settings: Homo sapiens, HCC827, 96 h
Description: Antiproliferative activity against human HCC827 cells after 96 hrs by MTS assay

[2] = molecular target: Epidermal growth factor receptor (Homo sapiens, UniProt P00533, L858R/T790M)
[3] = molecular target: T2, Epidermal growth factor receptor
Description: Inhibition of GST-tagged EGFR expressed in Escherichia coli

[4] = molecular target: T3, Aurora kinase A (Homo sapiens) (UniProt O14965); assay: Inhibition of Aurora A at 10 uM
T3 sequence (whole entry): T1 sequence (O14965 whole entry)

HCT-116 = assay: Cytotoxicity against human HCT116 cells by MTS assay; type: functional, cell-based

T2 sequence (P00533 whole entry): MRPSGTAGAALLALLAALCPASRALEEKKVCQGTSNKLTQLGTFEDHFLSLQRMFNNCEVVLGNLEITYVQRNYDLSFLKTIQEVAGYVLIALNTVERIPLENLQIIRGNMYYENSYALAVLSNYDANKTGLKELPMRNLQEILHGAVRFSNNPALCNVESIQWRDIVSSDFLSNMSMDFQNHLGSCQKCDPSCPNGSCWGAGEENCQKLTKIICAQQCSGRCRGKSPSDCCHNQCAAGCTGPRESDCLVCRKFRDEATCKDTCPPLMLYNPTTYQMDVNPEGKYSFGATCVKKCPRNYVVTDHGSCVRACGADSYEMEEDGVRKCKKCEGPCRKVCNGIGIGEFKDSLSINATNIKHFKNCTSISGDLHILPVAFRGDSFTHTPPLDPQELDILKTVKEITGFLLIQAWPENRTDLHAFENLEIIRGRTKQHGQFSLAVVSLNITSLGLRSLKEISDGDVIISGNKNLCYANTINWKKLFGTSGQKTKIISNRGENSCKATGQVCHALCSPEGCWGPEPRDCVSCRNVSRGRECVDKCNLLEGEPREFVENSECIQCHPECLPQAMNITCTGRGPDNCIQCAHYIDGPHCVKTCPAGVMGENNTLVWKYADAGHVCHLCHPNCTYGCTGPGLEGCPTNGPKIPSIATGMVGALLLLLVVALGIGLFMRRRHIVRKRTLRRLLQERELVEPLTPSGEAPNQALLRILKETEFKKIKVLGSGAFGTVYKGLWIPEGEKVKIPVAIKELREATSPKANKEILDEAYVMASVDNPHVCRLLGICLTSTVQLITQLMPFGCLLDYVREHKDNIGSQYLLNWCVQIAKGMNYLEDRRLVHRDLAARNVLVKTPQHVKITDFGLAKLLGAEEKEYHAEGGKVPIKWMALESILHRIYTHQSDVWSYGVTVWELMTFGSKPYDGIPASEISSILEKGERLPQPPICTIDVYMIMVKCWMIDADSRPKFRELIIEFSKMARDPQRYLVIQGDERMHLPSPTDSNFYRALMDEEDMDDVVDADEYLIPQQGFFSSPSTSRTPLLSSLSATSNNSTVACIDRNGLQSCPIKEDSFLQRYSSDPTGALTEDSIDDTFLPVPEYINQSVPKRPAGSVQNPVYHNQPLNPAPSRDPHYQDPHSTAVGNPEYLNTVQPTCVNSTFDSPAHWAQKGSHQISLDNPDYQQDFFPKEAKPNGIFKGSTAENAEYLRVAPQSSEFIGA
Chain of Epidermal growth factor receptor (Homo sapiens, UniProt P00533, L858R/T790M) (P00533 25-1210 T790M/L858R limits assumed): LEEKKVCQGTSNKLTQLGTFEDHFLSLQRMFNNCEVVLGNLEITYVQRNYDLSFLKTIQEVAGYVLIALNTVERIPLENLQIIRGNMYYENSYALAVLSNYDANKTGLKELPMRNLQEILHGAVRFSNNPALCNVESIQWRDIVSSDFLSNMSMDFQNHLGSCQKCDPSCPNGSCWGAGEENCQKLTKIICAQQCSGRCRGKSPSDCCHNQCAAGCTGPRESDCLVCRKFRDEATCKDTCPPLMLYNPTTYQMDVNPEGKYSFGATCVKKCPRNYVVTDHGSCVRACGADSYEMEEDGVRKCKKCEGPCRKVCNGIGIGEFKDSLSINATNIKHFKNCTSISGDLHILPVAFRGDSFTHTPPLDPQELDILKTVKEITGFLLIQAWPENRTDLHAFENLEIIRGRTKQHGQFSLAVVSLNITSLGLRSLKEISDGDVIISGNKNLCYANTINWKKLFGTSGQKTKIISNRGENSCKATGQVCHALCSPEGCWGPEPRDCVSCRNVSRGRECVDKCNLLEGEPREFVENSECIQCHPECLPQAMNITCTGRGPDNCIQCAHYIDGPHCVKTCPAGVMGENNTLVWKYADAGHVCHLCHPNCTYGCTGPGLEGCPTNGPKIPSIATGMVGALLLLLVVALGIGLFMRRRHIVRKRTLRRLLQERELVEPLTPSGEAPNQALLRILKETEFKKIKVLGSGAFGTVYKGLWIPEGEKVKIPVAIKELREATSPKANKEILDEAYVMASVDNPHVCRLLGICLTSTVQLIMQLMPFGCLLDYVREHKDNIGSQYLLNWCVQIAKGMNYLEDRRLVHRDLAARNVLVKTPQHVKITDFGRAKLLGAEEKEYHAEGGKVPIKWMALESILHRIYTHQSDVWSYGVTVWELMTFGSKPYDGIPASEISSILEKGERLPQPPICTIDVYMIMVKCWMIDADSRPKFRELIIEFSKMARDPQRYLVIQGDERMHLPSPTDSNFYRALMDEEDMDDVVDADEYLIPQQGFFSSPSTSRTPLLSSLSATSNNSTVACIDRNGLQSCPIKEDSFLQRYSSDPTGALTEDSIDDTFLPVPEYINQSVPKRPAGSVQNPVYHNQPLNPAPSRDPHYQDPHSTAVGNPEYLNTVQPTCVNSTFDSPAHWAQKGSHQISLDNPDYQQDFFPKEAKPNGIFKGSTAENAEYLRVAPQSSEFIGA

| SMILES | IC50 (Aurora kinase A) [nM] | IC50 (HCT-116) [nM] | other results |
| --- | --- | --- | --- |
| c1ccc(-c2oc3ncnc(NCCc4cnc[nH]4)c3c2-c2ccccc2)cc1 | 296 | – | – |
| OC[C@@H](Nc1ncnc2oc(-c3ccccc3)c(-c3ccccc3)c12)c1ccccc1 | – | – | inhibition [1]: > 80%; IC50 (cells): 518 nM; IC50 [2]: > 10000 nM; IC50 [3]: 223 nM |
| CC1CN(c2ncnc3oc(-c4ccccc4)c(-c4ccccc4)c23)CC(C)N1 (configuration not stated) | 334 | – | – |
| OCCNc1ncnc2oc(-c3ccccc3)c(-c3ccccc3)c12 | 309 | – | inhibition [4]: 98.2% |
| c1ccc(-c2oc3ncnc(NCCCn4ccnc4)c3c2-c2ccccc2)cc1 | 3310 | – | inhibition [4]: 73.8% |
| c1ccc(-c2oc3ncnc(NCCN4CCOCC4)c3c2-c2ccccc2)cc1 | 1770 | – | inhibition [4]: 81.7% |
| OC1CCN(c2ncnc3oc(-c4ccccc4)c(-c4ccccc4)c23)CC1 | 807 | – | inhibition [4]: 85.8% |
| c1ccc(-c2oc3ncnc(NCCc4c[nH]cn4)c3c2-c2ccccc2)cc1 | – | – | inhibition [4]: 91.4% |
| COC1C=CC(CNc2ncnc3oc(-c4ccccc4)c(-c4ccccc4)c23)(OC)O1 (configuration not stated) | 827 | – | – |
| C[C@@H](O)CNc1ncnc2oc(-c3ccccc3)c(-c3ccccc3)c12 | 973 | – | – |
| O=C(Nc1ccccc1)Nc1ccc(CCNc2ncnc3oc(-c4ccccc4)c(-c4ccccc4)c23)cc1 | – | 400 | – |
| Cc1cc(Nc2cc(N3CCN(C)CC3)nc(Sc3ccc(NC(=O)C4CC4)cc3)n2)n[nH]1 [TOZASERTIB] | – | 120 | – |
| CCOC(=O)CCNc1ncnc2oc(-c3ccccc3)c(-c3ccccc3)c12 | 796 | > 10000 | – |
| C=CC(=O)Nc1ccc(-c2c(-c3ccccc3)oc3ncnc(N[C@H](CO)c4ccccc4)c23)cc1 | – | – | IC50 (cells): 394 nM; IC50 [2]: > 10000 nM; IC50 [3]: 82 nM |
| OCCOCCNc1ncnc2oc(-c3ccccc3)c(-c3ccccc3)c12 | 760 | – | – |
| C[C@@H](CO)Nc1ncnc2oc(-c3ccccc3)c(-c3ccccc3)c12 | 792 | – | – |

More lines, main results first:

| IC50 (Aurora kinase A) [nM] | SMILES | IC50 (HCT-116) [nM] | other results |
| --- | --- | --- | --- |
| 640 | Nc1ccc(CCNc2ncnc3oc(-c4ccccc4)c(-c4ccccc4)c23)cc1 | > 10000 | – |
| 535 | c1ccc(-c2oc3ncnc(NCCc4ccccn4)c3c2-c2ccccc2)cc1 | – | – |
| 304 | O=C(Nc1ccc(CCNc2ncnc3oc(-c4ccccc4)c(-c4ccccc4)c23)cc1)c1ccccc1 | > 10000 | – |
| 945 | Nc1ccc(CNc2ncnc3oc(-c4ccccc4)c(-c4ccccc4)c23)cc1 | – | – |
| 5830 | O=S(=O)(Nc1ccc(CCNc2ncnc3oc(-c4ccccc4)c(-c4ccccc4)c23)cc1)c1ccccc1 | > 10000 | – |
| > 10000 | O=C(CCNc1ncnc2oc(-c3ccccc3)c(-c3ccccc3)c12)Nc1ccccc1 | > 10000 | – |
| 640 | Oc1ccc(CCNc2ncnc3oc(-c4ccccc4)c(-c4ccccc4)c23)cc1 | – | – |
